Measured values as given in ChEMBL document CHEMBL1144354, “Frontal affinity chromatography with MS detection of EphB2 tyrosine kinase receptor. 2. Identification of small-molecule inhibitors via coupling with virtual screening” (J Med Chem, 2005).

How the values were obtained:
Ephrin type-B receptor 2 [1] = molecular target: T1, Ephrin type-B receptor 2 (Homo sapiens, UniProt P29323); assay: Inhibition of EPH receptor B2 using ELISA
T1 sequence (P29323 whole entry): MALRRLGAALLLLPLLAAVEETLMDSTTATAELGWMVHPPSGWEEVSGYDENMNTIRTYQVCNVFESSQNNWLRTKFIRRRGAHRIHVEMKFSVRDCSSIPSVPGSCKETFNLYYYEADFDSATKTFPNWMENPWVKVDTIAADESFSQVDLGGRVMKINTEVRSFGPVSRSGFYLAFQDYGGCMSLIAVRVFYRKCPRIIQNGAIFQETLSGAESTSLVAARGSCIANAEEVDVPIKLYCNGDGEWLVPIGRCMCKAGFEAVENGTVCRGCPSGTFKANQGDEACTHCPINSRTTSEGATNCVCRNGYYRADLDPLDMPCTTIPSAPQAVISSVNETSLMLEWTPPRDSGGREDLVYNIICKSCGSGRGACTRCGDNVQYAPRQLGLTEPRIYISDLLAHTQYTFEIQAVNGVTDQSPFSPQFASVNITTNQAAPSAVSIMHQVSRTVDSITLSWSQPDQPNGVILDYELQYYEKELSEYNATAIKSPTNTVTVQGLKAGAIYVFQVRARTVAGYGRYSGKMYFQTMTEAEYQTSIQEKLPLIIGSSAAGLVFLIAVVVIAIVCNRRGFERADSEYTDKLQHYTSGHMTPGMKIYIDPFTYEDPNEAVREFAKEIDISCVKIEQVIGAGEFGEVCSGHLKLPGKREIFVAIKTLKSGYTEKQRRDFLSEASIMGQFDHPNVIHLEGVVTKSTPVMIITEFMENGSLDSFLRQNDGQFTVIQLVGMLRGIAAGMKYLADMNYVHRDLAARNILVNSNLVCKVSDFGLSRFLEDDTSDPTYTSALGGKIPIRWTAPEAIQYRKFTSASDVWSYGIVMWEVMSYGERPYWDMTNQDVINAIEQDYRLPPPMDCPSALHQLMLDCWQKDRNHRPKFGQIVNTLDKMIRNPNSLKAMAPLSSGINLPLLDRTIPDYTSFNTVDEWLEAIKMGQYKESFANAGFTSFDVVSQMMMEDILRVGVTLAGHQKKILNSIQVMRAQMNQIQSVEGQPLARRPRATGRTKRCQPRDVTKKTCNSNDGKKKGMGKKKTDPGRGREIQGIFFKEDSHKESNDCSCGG

Ephrin type-B receptor 2 [2] = molecular target: T1, Ephrin type-B receptor 2; assay: Equilibrium binding constant for EPH receptor B2

| IC50 (Ephrin type-B receptor 2 [1]) | Kd (Ephrin type-B receptor 2 [2]) | SMILES |
| --- | --- | --- |
| 52 µM | 36.5 µM | CC(C)(C)n1nc(-c2ccc(Cl)cc2)c2c(N)ncnc21 |
| 1.2 µM | 2.4 µM | COc1cc2ncnc(Nc3cccc(O)c3)c2cc1OC |
| 10.2 µM | 8.1 µM | COc1cc2ncnc(Nc3cccc(Br)c3)c2cc1OC |
| 38 µM | – | O=C1C=C(Nc2ccc(O)cc2)C(=O)c2ccccc21 |
| 34 µM | 21.9 µM | CNc1ccc2c(Nc3cccc(Br)c3)ncnc2c1 |
| 86 µM | 58.4 µM | COc1cc2ncnc(Nc3ccc(Oc4ccccc4)cc3)c2cc1OC |
| 27.5 µM | 19.5 µM | CN(C)c1ccc(/C=C2/C(=O)Nc3ccccc32)cc1 |
